Results as given in ChEMBL document CHEMBL1121858, “Synthesis and antimalarial activity of 8-[(1-alkyl-4-aminobutyl)amino]-6-methoxy-4-methylquinolines” (1981).
“And” between values parts separate entries of the source, which are not always exact repeats. Equal values may be shown once.

Experiments:
Assay type in all cases: functional
Mus musculus [1] = test: Mean survival time of Plasmodium berghei infected mice (Mus musculus) after administration of single dose of 40 mg/kg intravenously; conditions: route intravenous
Mus musculus [2] = test: Mean survival time of Plasmodium berghei infected mice (Mus musculus) after administration of single dose of 80 mg/kg intravenously; conditions: route intravenous
Mus musculus [3] = test: Mean survival time of Plasmodium berghei infected mice (Mus musculus) after administration of single dose of 20 mg/kg intravenously; conditions: route intravenous
Mus musculus [4] = test: Mean survival time of Plasmodium berghei infected mice (Mus musculus) after administration of single dose of 160 mg/kg intravenously; conditions: route intravenous
Mus musculus [5] = test: Mean survival time of Plasmodium berghei infected mice (Mus musculus) after administration of single dose of […] intravenously
Mus musculus [6] = test: Mean survival time of Plasmodium berghei infected mice (Mus musculus) after administration of single dose of 640 mg/kg intravenously; conditions: route intravenous

Structure (SMILES)	MST (Mus musculus [1])	MST (Mus musculus [2])	MST (Mus musculus [3])	MST (Mus musculus [4])	MST (Mus musculus [5])	MST (Mus musculus [6])	MST (Mus musculus [1]; 40 mg/kg)	MST (Mus musculus [2]; 80 mg/kg)	MST (Mus musculus [3]; 20 mg/kg)	MST (Mus musculus [4]; 160 mg/kg)
CCC(CCCN)Nc1cc(OC)cc2c(C)ccnc12.O=P(O)(O)O (centres undefined)	7.9 days	9.7 days	7.3 days	11.5 days	5 days	5 days				
CCCC(CCCN)Nc1cc(OC)cc2c(C)ccnc12.O=P(O)(O)O (centres undefined)	4.1 days	5.7 days	3.1 days	6.3 days	9.1 days	12.3 days				
COc1cc(NC(C)CCCN)c2ncccc2c1.O=P(O)(O)O.O=P(O)(O)O (centres undefined) [PRIMAQUINE PHOSPHATE]					5 days	5 days	4.2 days and 5 days	6.4 days and 9.4 days	2.2 days and 4 days	7 days and 10.8 days
COc1cc(NC(CCCN)C(C)C)c2nccc(C)c2c1.O=P(O)(O)O (centres undefined)	5.2 days	6.8 days	3.4 days	7.8 days	7.2 days	1 days				
